# According to US20160368879A1, “PHOTOACID GENERATOR, AND RESIN COMPOSITION FOR PHOTOLITHOGRAPHY” (SAN-APRO LTD., priority 2013, published 2016):
# What was measured:
# Type in all cases: physicochemical
# [1] = Solvent solubility (butyl acetate, toluene or PGMEA); conditions: 25° C.
# In short: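 Test-tube titration at 25° C: 0.1 g photoacid generator, solvent (butyl acetate, toluene or PGMEA) added in 0.2 g portions until fully dissolved. Scored as not dissolved if still undissolved after 20 g solvent.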
# [2] = Thermal decomposition temperature (TG/DTA, 2% weight reduction); conditions: point of 2% weight reduction; 10° C./minute from 30° C. to 500° C.; nitrogen atmosphere
# Protocol: The synthesized photoacid generator was measured for the change in weight under a temperature increasing condition of 10° C./minute from 30° C. to 500° C. under a nitrogen atmosphere using a thermal gravimetric/differential thermal analyzer (TG/DTA 6200, available from Seiko Instruments Inc.), and a point where the weight was reduced by 2% was defined as the thermal decomposition temperature.
# [3] = Molar extinction coefficient of i-line (365 nm), UV-visible absorbance in acetonitrile; conditions: 0.25 mmol/L in acetonitrile, cell length 1 cm
# In short: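 Compound at 0.25 mmol/L in acetonitrile; UV-visible absorbance scanned 200–500 nm in a 1 cm path cell. ε365 calculated from the absorbance at 365 nm.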
Compound,Solvent solubility PGMEA [1],Solvent solubility Butyl acetate [1],Solvent solubility Toluene [1],Thermal decomposition temperature [2],Molar extinction coefficient [3]
"CCCC(=O)Oc1cc2c3c(cccc3c1)C(=O)N(OS(=O)(=O)CC13CCC(CC1=O)C3(C)C)C2=O (stereo not drawn) [Example A-50, 3-butyroyloxy-1,8-naphthalimide-(+)-10-camphorsulfonate]",7.2 wt %,9 wt %,7 wt %,237 °C,1600 L/mol/cm
"CC1(C)C2CCC1(CS(=O)(=O)ON1C(=O)c3cccc4c(OCC(F)(F)C(F)F)ccc(c34)C1=O)C(=O)C2 (stereo not drawn) [Example A-43, 4-(2,2,3,3-tetrafluoro-1-propoxy)-1,8-naphthalimide-(+)-10-camphorsulfonate]",3 wt %,3 wt %,3.5 wt %,231 °C,12000 L/mol/cm
"CC1(C)C2CC[C@@]1(CS(=O)(=O)ON1C(=O)c3cccc4cc(OC(=O)c5c(F)c(F)c(F)c(F)c5F)cc(c34)C1=O)C(=O)C2 [Example A-52, 3-pentafluorobenzoyloxy-1,8-naphthalimide-(+)-10-camphorsulfonate]",7.5 wt %,12 wt %,10 wt %,245 °C,1300 L/mol/cm
"O=C1c2cccc3c(Sc4ccccc4)ccc(c23)C(=O)N1OS(=O)(=O)C(F)(F)F [Example A-7, 4-phenylthio-1,8-naphthalimide trifluoromethanesulfonate]",5 wt %,7 wt %,7 wt %,240 °C,20000 L/mol/cm
"C[Si](C)(C)c1ccc2c3c(cccc13)C(=O)N(OS(=O)(=O)c1c(F)c(F)c(F)c(F)c1F)C2=O [Example A-38, 4-trimethylsilyl-1,8-naphthalimide pentafluorobenzenesulfonate]",5.5 wt %,5.5 wt %,6 wt %,241 °C,5500 L/mol/cm
"CC1(C)C2CCC1(CS(=O)(=O)ON1C(=O)c3cccc4c(C(F)(F)C(F)(F)C(F)(F)C(F)(F)F)ccc(c34)C1=O)C(=O)C2 (stereo not drawn) [Example A-56, 4-(nonafluorobutyl)-1,8-naphthalimide-(+)-10-camphorsulfonate]",5 wt %,5 wt %,5.5 wt %,241 °C,40 L/mol/cm
"CC(C)(C)Cc1cc2c3c(cc(CC(C)(C)C)cc3c1)C(=O)N(OS(=O)(=O)CC13CCC(CC1=O)C3(C)C)C2=O (stereo not drawn) [Example A-54, 3,6-dineopentyl-1,8-naphthalimide-(+)-10-camphorsulfonate]",3.5 wt %,4.5 wt %,2.5 wt %,252 °C,6200 L/mol/cm
"CCCOc1ccc2c3c(cccc13)C(=O)N(OS(=O)(=O)c1c(F)c(F)c(F)c(F)c1F)C2=O [Example A-22, 4-n-propoxy-1,8-naphthalimide pentafluorobenzenesulfonate]",3 wt %,3.5 wt %,6 wt %,240 °C,14000 L/mol/cm
"COc1cc2c3c(cccc3c1)C(=O)N(OS(=O)(=O)C[C@]13CCC(CC1=O)C3(C)C)C2=O [Example A-48, 3-methoxy-1,8-naphthalimide-(+)-10-camphorsulfonate]",1.5 wt %,2 wt %,1.9 wt %,242 °C,7500 L/mol/cm
"O=C1c2cccc3c(OCC(F)(F)C(F)F)ccc(c23)C(=O)N1OS(=O)(=O)c1c(F)c(F)c(F)c(F)c1F [Example A-23, 4-(2,2,3,3-tetrafluoro-1-propoxy)-1,8-naphthalimide pentafluorobenzenesulfonate]",7 wt %,7.5 wt %,10 wt %,232 °C,12000 L/mol/cm
"O=C1c2cccc3c(C(F)(F)C(F)(F)C(F)(F)C(F)(F)F)ccc(c23)C(=O)N1OS(=O)(=O)c1c(F)c(F)c(F)c(F)c1F [Example A-36, 4-(nonafluorobutyl)-1,8-naphthalimide pentafluorobenzenesulfonate]",13 wt %,14 wt %,11 wt %,239 °C,40 L/mol/cm
"CC1(C)C2CCC1(CS(=O)(=O)ON1C(=O)c3cccc4c(C(=O)Cc5ccccc5)ccc(c34)C1=O)C(=O)C2 (stereo not drawn) [Example A-44, 4-phenylacetyl-1,8-naphthalimide-(+)-10-camphorsulfonate]",1.8 wt %,1.4 wt %,1.8 wt %,233 °C,3000 L/mol/cm
"O=C(Oc1cc2c3c(cccc3c1)C(=O)N(OS(=O)(=O)C(F)(F)F)C2=O)c1c(F)c(F)c(F)c(F)c1F [Example A-12, 3-pentafluorobenzoyloxy-1,8-naphthalimide trifluoromethanesulfonate]",>30 wt %,>30 wt %,>30 wt %,242 °C,1300 L/mol/cm
"O=C1c2cccc3c(Oc4c(F)c(F)c(F)c(F)c4F)ccc(c23)C(=O)N1OS(=O)(=O)C(F)(F)F [Example A-5, 4-pentafluorophenoxy-1,8-naphthalimide trifluoromethanesulfonate]",14 wt %,17 wt %,16 wt %,245 °C,12000 L/mol/cm
